Data set [1] concerns tonic convulsion. The data set can be described thus: Electroshock test (anti-convulsive properties). It is filed as in vivo. To be noted: ip, read-out: Anti-convulsive properties, Electroshock test ED200 i.p. An excerpt: ^(1) The ED200 is the dose of the test compound (in mg/kg) which
necessitates a 100% increase of the current intensity to bring about a
tonic convulsion in 50% of the test animals.

In data set [2] the test system is Pentylenetetrazole (PTZ) cramp condition. Description: PTZ (pentylenetetrazole) test (anti-convulsive properties). It is filed as in vivo. The settings on record: ip, read-out: Anti-convulsive properties, PTZ test ED50 i.p. The text has this: ^(2) Pentylenetetrazole (i.e. PTZ) directly activates the nerve
endings, leading to a cramp condition.

A short description of data set [3]: Rotarod (neurotoxicity and sedation). The settings on record: ip. On the technique in general: In the rotarod test animals must keep their balance on a rotating rod.
Data set [4] in a line: Shuttle box (neurotoxicity and sedation). To be noted: ip.
The test system of data set [5] is benzodiazepine receptors. Description: Antagonism of anti-convulsive effect by benzodiazepine antagonist Ro 15-1788. It is filed as in vivo. To be noted: administration of Ro 15-1788.

Where a name gives a salt, the structure may show the parent alone. Read-outs that look alike come from different tables or passages of the source. Where only a bound is given, the exact number is not on record here.

In the case of `CCCC(CCC)C(=O)O` [sodium salt of valproic acid], in data set [1], the ED200 is 180 mg/kg. Besides, the ED50 (commonly the midpoint of the dose-response relation) in data set [2] came out at 30 mg/kg. The TD50 (as a rule, the 50% point of the dose-response relation for the toxic effect studied) in data set [3] is 230 mg/kg; in data set [4] it was 350 mg/kg.
`CN(C)C1C2C=CCC1c1ccccc1C2` (stereo not drawn): in data set [1], the ED200 is 11 mg/kg. Besides, in data set [2], the ED50 was determined as 10 mg/kg. Moreover, the TD50 was 70 mg/kg in data set [3] and greater than 46 mg/kg in data set [4].
In the case of `CN1C(=O)CN=C(c2ccccc2)c2cc(Cl)ccc21` [diazepam], the ED200 in data set [1] stood at 14 mg/kg. In data set [2], the ED50 was found to be 0.5 mg/kg. Moreover, the “Effect of benzodiazepine antagonist (Ro 15-1788) on the anti-convulsive effect” value in data set [5] is “completely counteracted”.
`O=C1NC(=O)C(c2ccccc2)(c2ccccc2)N1` [diphenyl hydantoin]: the ED200 in data set [1] (dose necessitating a 100% increase of current intensity to bring about tonic convulsion in 50% of test animals) turned out to be 15 mg/kg. For the same compound, the ED50 in data set [2] (pentylenetetrazole) was 22 mg/kg. Also, the TD50 in data set [3] and in data set [4] was 100 mg/kg throughout.

The values above are taken from US4551479A, “Compounds with anti-convulsive properties” (Akzo N.V., priority 1983, dated 1985).
